Legend:
Type in all cases: in vivo
[1] = system: blood concentration of total nitric oxides (NOx); test: Blood total nitric oxides (NOx) level in Beagle dogs after 11-day oral administration, NO3- + NO2- by HPLC; details: male Beagle dogs, oral once daily, relative to pre-treatment average = 100, mean of 5 dogs
Description: Simvastatin and atorvastatin synthesized at Chemtech Labo., Inc. were used. Gamma-oryzanol was purchased from Riken Vitamin Co., Ltd. and used. Benfotiamine manufactured at Sankyo Co., Ltd. was used.
Male Beagle dogs of 5 months of age were purchased from Covance Research Products Inc. as the test animals and were used after accommodation breeding for approximately 5 months.
The required amount of the test substance calculated based on the body weight of the test animals was weighed and filled in gelatin capsules (TORPAC Inc., 1/2 oz). After filling up, the capsules were placed in a box divided up for every animal and stored under freezing until use.
The capsules filled up with the test substance were orally administered to the test animals once daily via an oral gavage between 9:00-12:30. The test animals were fasted for 2-3 hrs prior to each administration. The administration period was 11 days.
Approximately 10 mL of blood was collected from the cephalic vein of each dog on—14 and—7 day (the 1st and the 2nd week prior to administration) as well as 4, 8, and 12 days after administration. The animals were fasted for approximately 18 hrs before collection of the blood.
The collected blood was placed in a test tube and allowed to stand at room temperature for 30 min to 1 hour. Then the blood was centrifuged (approximately 1,600 g, for 10 min) and the resultant serum obtained was used for assays.
Nitric oxide synthesized by nitric oxide synthase (NOS) is rapidly converted to nitrate ion (NO3^−) and nitrite ion (NO2^−). Blood concentration of total nitric oxides (NOx) is represented by the sum of NO3^− and NO2^− assayed by HPLC.
Relative values of blood concentration of total nitric oxides (NOx) in animals treated with each dose of simvastatin or atorvastatin calcium, gamma-oryzanol, and benfotiamine alone as well as their medicinal compositions as described above were calculated against each converted average value calculated from that determined 2 weeks and one week before treatment into 100.

[2] = Atherosclerosis index (LDL/HDL) in Beagle dogs after 11-day oral administration; details: male Beagle dogs, oral once daily, relative to pre-treatment average = 100, mean of 5 dogs, mg/Kg: gamma-oryzanol 100, simvastatin 1
Description: (§1) Simvastatin and atorvastatin synthesized at Chemtech Labo., Inc. were used. Gamma-oryzanol was purchased from Riken Vitamin Co., Ltd. and used. Benfotiamine manufactured at Sankyo Co., Ltd. was used. Male Beagle dogs of 5 months of age were purchased from Covance Research Products Inc. as the test animals and were used after accommodation breeding for approximately 5 months. The required amount of the test substance calculated based on the body weight of the test animals was weighed and filled in gelatin capsules (TORPAC Inc., 1/2 oz). After filling up, the capsules were placed in a box divided up for every animal and stored under freezing until use. The capsules filled up with the test substance were orally administered to the test animals once daily via an oral gavage between 9:00-12:30. The test animals were fasted for 2-3 hrs prior to each administration. The administration period was 11 days. […] The animals were fasted for approximately 18 hrs before collection of the blood. […] In addition, total cholesterol content was assayed by enzymatic assay method while HDL, LDL, and triglyceride were determined by homogeneous method, chemically modified method, and enzymatic techniques, respectively. ALP was assayed by Bessey-Lowry method. Clinical Laboratory System (TBA-120FR, Toshiba Medical Systems Corporation) was used in all of these determinations. […] The values indicate average results calculated from 5 dogs per group.

[3] = Blood total cholesterol level in Beagle dogs after 11-day oral administration, enzymatic assay; details: male Beagle dogs, oral once daily, relative to pre-treatment average = 100, mean of 5 dogs, mg/Kg: gamma-oryzanol 100, simvastatin 1
Description: as §1

[4] = Blood LDL level in Beagle dogs after 11-day oral administration; details: male Beagle dogs, oral once daily, relative to pre-treatment average = 100, mean of 5 dogs, mg/Kg: gamma-oryzanol 100, simvastatin 1
Description: as §1

[5] = 4 Days after treatment, mg/Kg: benfotiamine 50, simvastatin 1, atorvastatin calcium 2
[6] = 8 Days after treatment, mg/Kg: benfotiamine 50, simvastatin 1, atorvastatin calcium 2
[7] = 12 Days after treatment, mg/Kg: benfotiamine 50, simvastatin 1, atorvastatin calcium 2

CC(C)c1c(C(=O)Nc2ccccc2)c(-c2ccccc2)c(-c2ccc(F)cc2)n1CC[C@H](O)C[C@@H](O)CC(=O)O [Atorvastatin calcium, (3R,5S)-7-[2-(4-fluorophenyl)-5-(1-methylethyl)-3-phenyl-4-phenylaminocarbonyl-1H-pyrrol-1-yl]-3,5-dihydroxyheptanoic acid]
Changes in blood NOx levels (%) [1, 5]: 117.7%
Changes in blood NOx levels (%) [1, 6]: 114.1%
Changes in blood NOx levels (%) [1, 7]: 117.9%

C/C(=C(\CCOP(=O)(O)O)SC(=O)c1ccccc1)N(C=O)Cc1cnc(C)nc1N [Benfotiamine]
Changes in blood NOx levels (%) [1, 5]: 96.4%
Changes in blood NOx levels (%) [1, 6]: 91.6%
Changes in blood NOx levels (%) [1, 7]: 107.1%

CCC(C)(C)C(=O)O[C@H]1C[C@@H](C)C=C2C=C[C@H](C)[C@H](CC[C@@H]3C[C@@H](O)CC(=O)O3)[C@H]21 [Simvastatin, (+)-(1S,3R,7S,8S,8aR)-1,2,3,7,8,8a-hexahydro-3,7-dimethyl-8-[2-[ (2R,4R)-tetrahydro-4-hydroxy-6-oxo-2H-pyran-2-yl]ethyl]-1-naphthyl 2,2-dimethylbutyrate]
Changes in atherosclerosis index (LDL/HDL) (%) ([2]; 4 Days after treatment): 86.6%
Changes in atherosclerosis index (LDL/HDL) (%) ([2]; 8 Days after treatment): 93.8%
Changes in atherosclerosis index (LDL/HDL) (%) ([2]; 12 Days after treatment): 86.3%
Changes in blood NOx levels (%) [1, 5]: 101.6%
Changes in blood NOx levels (%) ([1]; 4 Days after treatment, mg/Kg: gamma-oryzanol 100, simvastatin 1): 101.6%
Changes in blood NOx levels (%) [1, 6]: 85.5%
Changes in blood NOx levels (%) ([1]; 8 Days after treatment, mg/Kg: gamma-oryzanol 100, simvastatin 1): 85.5%
Changes in blood NOx levels (%) [1, 7]: 121.9%
Changes in blood NOx levels (%) ([1]; 12 Days after treatment, mg/Kg: gamma-oryzanol 100, simvastatin 1): 121.9%
Changes in blood total cholesterol levels (%) ([3]; 4 Days after treatment): 94.8%
Changes in blood total cholesterol levels (%) ([3]; 8 Days after treatment): 94.1%
Changes in blood total cholesterol levels (%) ([3]; 12 Days after treatment): 92.4%
Changes in blood LDL levels (%) ([4]; 4 Days after treatment): 83.9%
Changes in blood LDL levels (%) ([4]; 8 Days after treatment): 90.4%
Changes in blood LDL levels (%) ([4]; 12 Days after treatment): 81.3%

From patent US20050182036A1, “Medicinal composition containing an HMG-CoA reductase inhibitor” (SANKYO COMPANY, LIMITED, priority 2002, published 2005)
